Measurements from article PMC7340540, “Crystal structures and calorimetry reveal catalytically relevant binding mode of coproporphyrin and coproheme in coproporphyrin ferrochelatase” (The FEBS journal, 2019).

Target: T1, LmCpfC (Listeria monocytogenes, UniProt Q8Y565)
T1 construct: gene cpfC; full length in pET21a(+) (BamHI/XhoI), C-terminal 6xHis-tag kept, vector N-terminal residues; E. coli BL21 Gold; 37 kDa theoretical, 38 kDa by MALS; monomer
T1 sequence (Q8Y565 1-309): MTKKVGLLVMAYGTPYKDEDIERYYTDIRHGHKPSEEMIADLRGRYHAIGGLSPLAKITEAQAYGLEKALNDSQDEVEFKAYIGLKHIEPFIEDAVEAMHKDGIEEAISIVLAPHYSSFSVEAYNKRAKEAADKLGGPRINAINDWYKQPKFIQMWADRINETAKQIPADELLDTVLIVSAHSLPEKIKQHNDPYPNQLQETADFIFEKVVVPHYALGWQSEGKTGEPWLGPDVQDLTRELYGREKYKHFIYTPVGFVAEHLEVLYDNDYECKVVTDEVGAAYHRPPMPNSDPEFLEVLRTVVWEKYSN
Assay: stopped-flow UV-vis, […] nm, KD = koff/kon
Format: binding

Question: `CC1=C(CCC(=O)O)c2cc3nc(cc4[nH]c(cc5[nH]c(cc1n2)c(C)c5CCC(=O)O)c(CCC(=O)O)c4C)C(CCC(=O)O)=C3C` [coproporphyrin III] was tested. Which Kd did it give?
Answer: 2000 nM
